We go through nine molecules from patent US20120041195A1, “Heterocyclic compounds” (FOVEA PHARMACEUTICALS, priority 2009, published 2012).

One series in a line: Colour of compound. Type of series: physicochemical.
Series [1] is described as follows: Solubility in aqueous medium (buffer pH 5). Type of series: physicochemical. The note with it: acetic acid/KOH buffer pH 5, stirred 24 h at room temperature, HPLC/UV of supernatant. As for the experimental part: Solubility of Compounds was determined in aqueous medium using the following procedure.
Two mg of Compound (2 mg) was added to 200 μl buffer (acetic acid/KOH) solution at pH 5. Solution was then stirred for 24 h at room temperature and then centrifuged 10 min at 16,000 rpm. Corresponding supernatants were analyzed by HPLC and UV detection. Calculation of a given Compound concentration was performed by reporting area under the experimental slope onto a calibration slope obtained separately using DMSO-solubilised Compound at different concentrations.

In series [2] the test system is VEGF-induced blood-retinal barrier breakdown. Put plainly: Inhibition of vascular leakage in a rat model of blood-retinal barrier breakdown. Type of series: in vivo. The note with it: intravitreal VEGF164 100 ng, 0.58% (5.8 mg/ml buffer pH 5) topical 10 μl six times over 27 h, Evans blue in retina. The method, then:
We investigated the efficacy of topical administration of compound 5 of the invention in reducing the retinal leakage in a VEGF-induced blood-retinal barrier breakdown in the rat. Rats were treated by a single intravitreal injection of 5 μl (100 ng) recombinant rat VEGF164 (RD systems) into each eye.
During twenty-seven hours following VEGF injection, 0.58% test compound 5 of the invention (5.8 mg/ml buffer pH 5) and control without compound of the invention were administered six times by topical administration (10 μl) in eyes of sixteen rats.
Twenty-seven hours after the VEGF challenge, Evans blue dye (45 mg/kg) was injected intravenously and the dye was allowed to circulate during two hours.
Then, each rat was infused with 0.05M citrate buffer pH 3.5 (37° C.) for 2 minutes to allow clearance of the dye. Immediately after said perfusion, both eyes were enucleated and Evans blue dye was extracted by incubating each retina in formamide (Qaum et al Invest. Ophthalmol. Vis. Sci. 2001, Vol 42, No 10). Afterward, the absorbance was measured with a spectrophotometer at 620 nm.
Breakdown of the blood-retinal barrier was proportional to the concentration of Evans blue in the retina normalized by Evans blue concentrations in the plasma.

As to `Cl.Oc1ccc(Cl)c(-c2ccc3nc(Nc4ccc(OCCN5CCCC5)cc4)nn3c2)c1` [compound 5, 4-Chloro-3-{2-[4-(2-pyrrolidin-1-yl-ethoxy)-phenylamino]-[1,2,4]triazolo[1,5-a]pyridin-6-yl}-phenol, hydrochloride], the Colour entry in “Colour of compound” is reported as “Colourless”. In series [1], the “Soiubility (pH 5) in mg/ml” value worked out at 5.4 mg/ml and the “Solubility (pH 5) in %” value was determined as 0.3%. Further, the “reduction of vascular leakage compared to control” value in series [2] is recorded as 71%.

For the molecule `CN(C)[C@@H]1CCN(C(=O)COc2ccc(Nc3nc4ccc(-c5cc(O)ccc5Cl)cn4n3)cc2)C1.Cl` [compound 6, 2-{4-[6-(2-Chloro-5-hydroxy-phenyl)-[1,2,4]triazolo[1,5-a]pyridin-2-ylamino]-phenoxy}-1-((R)-3-dimethylamino-pyrrolidin-1-yl)-ethanone, hydrochloride], in “Colour of compound”, the Colour result is given as “Colourless”. In addition, in series [1], the “Soiubility (pH 5) in mg/ml” value turned out to be 0.9 mg/ml and the “Solubility (pH 5) in %” value turned out to be 0.1%.

As to `O=C1N(CCN2CCCC2)CCN1c1ccc(Nc2nc3ccc(-c4cc(O)ccc4Cl)cn3n2)cc1` [compound 7, 1-{4-[6-(2-Chloro-5-hydroxy-phenyl)-[1,2,4]triazolo[1,5-a]pyridin-2-ylamino]-phenyl}-3-(2-pyrrolidin-1-yl-ethyl)-imidazolidin-2-one], the Colour entry in the series “Colour of compound” is recorded as “Colourless”. For the same molecule, in series [1], the “Soiubility (pH 5) in mg/ml” value came to 0.22 mg/ml and the “Solubility (pH 5) in %” value is listed as 0.022%.

Regarding `Cc1cc(-c2cc(O)ccc2Cl)cn2nc(Nc3ccc(OCCN4CCCC4)cc3)nc12.Cl` [compound 9, 4-Chloro-3-{8-methyl-2-[4-(2-pyrrolidin-1-yl-ethoxy)-phenylamino]-[1,2,4]triazolo[1,5-a]pyridin-6-yl}-phenol, hydrochloride], the Colour result in “Colour of compound” is recorded as “Colourless”. Also, in series [1], the “Soiubility (pH 5) in mg/ml” value is recorded as 1 mg/ml and the “Solubility (pH 5) in %” value worked out at 0.1%.

Consider `Cl.Oc1ccc(Cl)c(-c2ccn3nc(Nc4ccc(OCCN5CCCC5)cc4)nc3c2)c1` [compound 10, 4-Chloro-3-{2-[4-(2-pyrrolidin-1-yl-ethoxy)-phenylamino]-[1,2,4]triazolo[1,5-a]pyridin-7-yl}-phenol, hydrochloride], for which the Colour result in the series “Colour of compound” is listed as “Colourless”. In series [1], the “Soiubility (pH 5) in mg/ml” value is 2 mg/ml and the “Solubility (pH 5) in %” value was 0.2%.

`Oc1ccc(Cl)c(-c2ccc3nc(Nc4cccc(OCCN5CCOCC5)c4)nn3c2)c1` [compound 12, 4-Chloro-3-{2-[3-(2-morpholin-4-yl-ethoxy)-phenylamino]-[1,2,4]triazolo[1,5-a]pyridin-6-yl}-phenol]: the Colour result in “Colour of compound” is “Colourless”. In series [1], the “Soiubility (pH 5) in mg/ml” value amounted to 0.2 mg/ml and the “Solubility (pH 5) in %” value worked out at 0.02%.

Take `CN(C)CCOc1ccc(Nc2nc3ccc(-c4cc(O)ccc4Cl)cn3n2)cc1` [compound 14, 4-Chloro-3-{2-[4-(2-dimethylamino-ethoxy)-phenylamino]-[1,2,4]triazolo[1,5-a]pyridin-6-yl}-phenol]: the Colour entry in the series “Colour of compound” was “Colourless”. For the same molecule, in series [1], the “Soiubility (pH 5) in mg/ml” value was above 10 mg/ml and the “Solubility (pH 5) in %” value is above 1%.

For the molecule `CN(C)CCOc1cccc(Nc2nc3ccc(-c4cc(O)ccc4Cl)cn3n2)c1` [compound 15, 4-Chloro-3-{2-[3-(2-dimethylamino-ethoxy)-phenylamino]-[1,2,4]triazolo[1,5-a]pyridin-6-yl}-phenol], in “Colour of compound”, the Colour entry is listed as “Colourless”. Also, in series [1], the “Soiubility (pH 5) in mg/ml” value worked out at 0.7 mg/ml and the “Solubility (pH 5) in %” value is reported as 0.07%.

On to `Oc1ccc(Cl)c(-c2ccc3nc(Nc4cccc(OCCN5CCCC5)c4)nn3c2)c1` [compound 16, 4-Chloro-3-{2-[3-(2-pyrrolidin-1-yl-ethoxy)-phenylamino]-[1,2,4]triazolo[1,5-a]pyridin-6-yl}-phenol], for which the Colour result in “Colour of compound” was “Colourless”. Besides, in series [1], the “Soiubility (pH 5) in mg/ml” value came to 0.1 mg/ml and the “Solubility (pH 5) in %” value is 0.01%.
